Measured values as given in ChEMBL document CHEMBL1201862, “PubChem BioAssay data set” (2004).
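Method: 48-hour compound exposure of cells in 96-well plates, five concentrations, linear interpolation of endpoints. GI50 = concentration required for 50% inhibition of growth.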 Activity calls are given as the source filed them. No stated cut-off is given here; in the data, active = GI50 up to about 1.1 µM and inactive = higher.

Tests used:
Experiment in all cases: DTP human tumour cell line panel, 48 h
786-0 = test system: 786-0
COLO 205 = test system: COLO 205
DU-145 = test system: DU-145
HCC 2998 = test system: HCC 2998
HCT-116 = test system: HCT-116
HL-60 = test system: HL-60
Hs-578T = test system: Hs-578T
M14 = test system: M14
MCF7 = test system: MCF7
MOLT-4 = test system: MOLT-4
NCI-H226 = test system: NCI-H226
NCI-H522 = test system: NCI-H522
OVCAR-5 = test system: OVCAR-5
RPMI-8226 = test system: RPMI-8226
SK-MEL-28 = test system: SK-MEL-28
SK-OV-3 = test system: SK-OV-3
SNB-75 = test system: SNB-75
TK-10 = test system: TK-10
UACC-257 = test system: UACC-257
UO-31 = test system: UO-31

COC(=O)C1(Cc2ccc3c(c2)CCC3)Cc2ccc3c(c2C1=O)CCC3 (stereo not given)
GI50 (786-0): 7.33 µM (inactive) | GI50 (COLO 205): 3.05 µM (inactive) | GI50 (DU-145): 33.6 µM (inactive) | GI50 (HCC 2998): 6.95 µM (inactive) | GI50 (HCT-116): 3.66 µM (inactive) | GI50 (HL-60): 2.86 µM (inactive) | GI50 (Hs-578T): 3.26 µM (inactive) | GI50 (M14): 4.26 µM (inactive) | GI50 (MCF7): 3.43 µM (inactive) | GI50 (MOLT-4): 4.06 µM (inactive) | GI50 (NCI-H226): 10.5 µM (inactive) | GI50 (NCI-H522): 3.92 µM (inactive) | GI50 (OVCAR-5): 21.1 µM (inactive) | GI50 (RPMI-8226): 5.4 µM (inactive) | GI50 (SK-MEL-28): 8.22 µM (inactive) | GI50 (SK-OV-3): 20.4 µM (inactive) | GI50 (SNB-75): 5.42 µM (inactive) | GI50 (TK-10): 11.8 µM (inactive) | GI50 (UACC-257): 8.65 µM (inactive) | GI50 (UO-31): 10.6 µM (inactive)

c1ccc2c(c1)NC1(N3CCCCC3)CCCCC21 (stereo not given)
GI50 (786-0): 61 µM (inactive) | GI50 (COLO 205): 62.1 µM (inactive) | GI50 (DU-145): 57.9 µM (inactive) | GI50 (HCC 2998): 76.4 µM (inactive) | GI50 (HCT-116): 37.9 µM (inactive) | GI50 (HL-60): 29.6 µM (inactive) | GI50 (Hs-578T): 47.9 µM (inactive) | GI50 (M14): 55.3 µM (inactive) | GI50 (MCF7): 36.1 µM (inactive) | GI50 (MOLT-4): 25.9 µM (inactive) | GI50 (NCI-H226): 52.4 µM (inactive) | GI50 (NCI-H522): 35.8 µM (inactive) | GI50 (OVCAR-5): 35.2 µM (inactive) | GI50 (RPMI-8226): 39.1 µM (inactive) | GI50 (SK-MEL-28): 49.3 µM (inactive) | GI50 (SK-OV-3): > 100 µM (inactive) | GI50 (SNB-75): 22.5 µM (inactive) | GI50 (TK-10): > 100 µM (inactive) | GI50 (UACC-257): 47.3 µM (inactive) | GI50 (UO-31): 51.9 µM (inactive)

CN1CC2=C(N=C(S)NC2c2ccccc2)/C(=C/c2ccccc2)C1 (stereo not given)
GI50 (786-0): > 100 µM (inactive) | GI50 (COLO 205): 34.8 µM (inactive) | GI50 (DU-145): > 100 µM (inactive) | GI50 (HCC 2998): 29.3 µM (inactive) | GI50 (HCT-116): 13 µM (inactive) | GI50 (HL-60): > 10 µM (inactive) | GI50 (Hs-578T): 40.6 µM (inactive) | GI50 (M14): 25.4 µM (inactive) | GI50 (MCF7): 40.4 µM (inactive) | GI50 (MOLT-4): 13 µM (inactive) | GI50 (NCI-H226): > 100 µM (inactive) | GI50 (NCI-H522): 43 µM (inactive) | GI50 (OVCAR-5): > 100 µM (inactive) | GI50 (RPMI-8226): 46.6 µM (inactive) | GI50 (SK-MEL-28): 27.6 µM (inactive) | GI50 (SK-OV-3): 22.2 µM (inactive) | GI50 (SNB-75): 48 µM (inactive) | GI50 (TK-10): 26 µM (inactive) | GI50 (UACC-257): 91.6 µM (inactive) | GI50 (UO-31): 60.5 µM (inactive)

CN(C)CC1CCC/C(=C\c2ccc(Cl)cc2)C1=O (stereo not given)
GI50 (786-0): 1.68 µM (inactive) | GI50 (COLO 205): 2.12 µM (inactive) | GI50 (DU-145): 15.5 µM (inactive) | GI50 (HCC 2998): 7.38 µM (inactive) | GI50 (HCT-116): 1.8 µM (inactive) | GI50 (HL-60): 1.37 µM (inactive) | GI50 (Hs-578T): 2.92 µM (inactive) | GI50 (M14): 2.28 µM (inactive) | GI50 (MCF7): 1.24 µM (inactive) | GI50 (MOLT-4): 0.9 µM (active) | GI50 (NCI-H226): 14.7 µM (inactive) | GI50 (NCI-H522): 1.75 µM (inactive) | GI50 (OVCAR-5): 16.9 µM (inactive) | GI50 (RPMI-8226): 0.254 µM (active) | GI50 (SK-MEL-28): 3.46 µM (inactive) | GI50 (SK-OV-3): 10.9 µM (inactive) | GI50 (SNB-75): 3.25 µM (inactive) | GI50 (TK-10): 3.9 µM (inactive) | GI50 (UACC-257): 4.91 µM (inactive) | GI50 (UO-31): 2.25 µM (inactive)

COc1cccc(C2c3cc4c(cc3OC(C)(N3CCCC3)C2C)OCO4)c1OC (stereo not given)
GI50 (786-0): 14.5 µM (inactive) | GI50 (COLO 205): 7.67 µM (inactive) | GI50 (DU-145): 10 µM (inactive) | GI50 (HCC 2998): 19.1 µM (inactive) | GI50 (HCT-116): 4.3 µM (inactive) | GI50 (HL-60): 4.91 µM (inactive) | GI50 (Hs-578T): 10.7 µM (inactive) | GI50 (M14): 14.6 µM (inactive) | GI50 (MCF7): 11.9 µM (inactive) | GI50 (MOLT-4): 5.11 µM (inactive) | GI50 (NCI-H226): 14.4 µM (inactive) | GI50 (NCI-H522): 13.9 µM (inactive) | GI50 (OVCAR-5): 16 µM (inactive) | GI50 (RPMI-8226): 8.97 µM (inactive) | GI50 (SK-MEL-28): 25.9 µM (inactive) | GI50 (SK-OV-3): 5.82 µM (inactive) | GI50 (SNB-75): 8.89 µM (inactive) | GI50 (TK-10): 13.7 µM (inactive) | GI50 (UACC-257): 16 µM (inactive) | GI50 (UO-31): 6.41 µM (inactive)

c1cc2cc(Cc3ccc4[nH]ccc4c3)ccc2[nH]1
GI50 (786-0): 18.3 µM (inactive) | GI50 (COLO 205): 17.5 µM (inactive) | GI50 (DU-145): 22.9 µM (inactive) | GI50 (HCC 2998): 15.3 µM (inactive) | GI50 (HCT-116): 17.6 µM (inactive) | GI50 (HL-60): 10.7 µM (inactive) | GI50 (Hs-578T): 19.9 µM (inactive) | GI50 (M14): 17.1 µM (inactive) | GI50 (MCF7): 14.1 µM (inactive) | GI50 (MOLT-4): 10.7 µM (inactive) | GI50 (NCI-H226): 15.9 µM (inactive) | GI50 (NCI-H522): 15.6 µM (inactive) | GI50 (OVCAR-5): 19.5 µM (inactive) | GI50 (RPMI-8226): > 10 µM (inactive) | GI50 (SK-MEL-28): 26.4 µM (inactive) | GI50 (SK-OV-3): 19.5 µM (inactive) | GI50 (SNB-75): 17.9 µM (inactive) | GI50 (TK-10): 22.1 µM (inactive) | GI50 (UACC-257): 21.9 µM (inactive) | GI50 (UO-31): 16.2 µM (inactive)
